From patent US11976083B2, “Inhibitors of peptidylarginine deiminases” (Gilead Sciences, Inc., priority 2020, dated 2024) come the findings set out here.

Molecules are shown by their SMILES.

For this assay, the target named is T1, human PAD4 (Homo sapiens, UniProt Q9UM07).
T1 construct: human PAD4 (NM_012387), A2-P663, was PCR amplified; His-SUMO (N, cleaved yes); made in house; host or cells: E. coli BL21(DE3)
T1 sequence (Q9UM07 2-663): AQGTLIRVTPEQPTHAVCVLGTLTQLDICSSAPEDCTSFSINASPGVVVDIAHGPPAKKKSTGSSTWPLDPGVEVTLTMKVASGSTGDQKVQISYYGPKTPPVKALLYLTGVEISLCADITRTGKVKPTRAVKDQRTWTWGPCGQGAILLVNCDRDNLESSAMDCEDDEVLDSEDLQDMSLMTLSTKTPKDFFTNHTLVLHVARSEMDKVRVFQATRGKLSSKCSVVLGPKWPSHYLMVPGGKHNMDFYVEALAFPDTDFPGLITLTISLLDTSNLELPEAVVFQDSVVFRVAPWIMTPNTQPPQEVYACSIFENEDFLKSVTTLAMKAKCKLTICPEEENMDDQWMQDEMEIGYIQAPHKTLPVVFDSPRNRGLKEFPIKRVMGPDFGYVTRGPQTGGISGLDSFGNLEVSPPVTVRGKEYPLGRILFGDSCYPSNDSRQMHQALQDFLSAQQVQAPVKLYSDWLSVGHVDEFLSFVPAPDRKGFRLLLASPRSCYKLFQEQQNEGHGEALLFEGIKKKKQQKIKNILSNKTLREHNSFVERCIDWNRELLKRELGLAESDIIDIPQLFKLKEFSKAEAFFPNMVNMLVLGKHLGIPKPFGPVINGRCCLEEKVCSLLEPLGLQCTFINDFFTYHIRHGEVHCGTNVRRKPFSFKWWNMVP
As to the kind of experiment: In vitro PAD4 BAEE biochemical assay. The note with it: BAEE substrate 3 mM, 5 nM PAD4, 2 mM calcium chloride; geometric mean of multiple experiments. An excerpt:
In Vitro PAD4 BAEE Biochemical Assay
The enzymatic activity of human PAD4 was monitored in a biochemical assay in the presence or absence of compounds using the small peptidyl arginine mimic BAEE (Na-Benzoyl-L-arginine ethyl ester hydrochloride) as substrate. PAD4 activity led to deimination of BAEE and release of ammonia. Levels of ammonia were monitored by using an amine coupling reaction and were indicative of PAD4 enzymatic activity.
One hundred nanoliters of test compounds dissolved in DMSO at various concentrations were dispensed into a 384-well black OptiPlate using a Labcyte Echo instrument. Ten microliters of a solution of recombinant PAD4 and calcium chloride diluted in PAD4 assay buffer (50 mM MOPS [3-(N-morpholino) propanesulfonic acid], pH 7.6; 50 mM sodium chloride; 0.05% Tween-20; 2 mM dithiothreitol) was added to the compound-containing plate and was incubated for 30 minutes at 25° C. Ten microliters of a solution of BAEE (Sigma-Aldrich #B4500) diluted in PAD4 assay buffer was then added to start the reaction. Final concentrations were 5 nM PAD4, 2 mM calcium chloride, and 3 mM BAEE. The reaction mixture was incubated at 25° C. for 2 hours and was stopped with the addition of 10 microliters of a solution of 75 mM EDTA (Ethylenediaminetetraacetic acid) in PAD4 assay buffer. Thirty microliters of detection solution (5 mM o-phthalaldehyde, 50 mM MOPS [3-(N-morpholino) propanesulfonic acid], pH 7.6; 50 mM sodium chloride; 0.05% Tween-20; 5 mM dithiothreitol) was then added and the reaction was incubated for 1 hour at 25° C. The level of fluorescent thiol-substituted isoindole resulting from the reaction of ammonia, o-phthalaldehyde, and dithiothreitol was measured on an Envision plate reader (PerkinElmer) with 405 nm excitation and 535 nm emission.
Data were normalized based on maximum inhibition (50 micromolar of the covalent PAD inhibitor BB-Cl-Amidine (Bicker, K. L.; Anguish, L.; Chumanevich, A. A.; Cameron, M. D.; Cui, X.; Witalison, E.; Subramanian, V.; Zhang, X.; Chumanevich, A. P.; Hofseth, L. J.; Coonrod, S. A.; Thompson, P. R. ACS Med. Chem. Lett. 2012, 3, 1081-1085). and no inhibition (DMSO) controls. Least squares curve fittings were performed using a four-parameter variable slope nonlinear regression model. IC50 is defined as the concentration of compound required to inhibit 50% of maximum activity. IC50 values from multiple experiments were averaged by geometric mean and the standard deviation was calculated.
A word on the IC50: it is the point on the concentration scale where inhibition reaches its midpoint. With `COc1cc(C(=O)N2CCC[C@@H](N)C2)cc2nc(-c3cc4ccc5nc4n3CCC/C=C/C[C@@](C)(C(F)(F)F)C(=O)N[C@@H]5C)n(C)c12` (single isomer, unassigned) [Example 2, (5˜{E},8˜{R},11˜{R})-17-[5-[(3˜{R})-3-aminopiperidine-1-carbonyl]-7-methoxy-1-methyl-benzimidazol-2-yl]-8,11-dimethyl-8-(trifluoromethyl)-1,10,19-triazatricyclo[10.5.2.0^{15,18}]nonadeca-5,12(19),13,15(18),16-pentaen-9-one], the IC50 worked out at 75 nM.
Consider `COc1cc(C(=O)N2CCC[C@@H](N)C2)cc2nc(-c3cc4ccc5nc4n3CCC/C=C/C[C@](C)(C(F)(F)F)C(=O)N[C@@H]5C)n(C)c12` (single isomer, unassigned) [Example 3, (5˜{E},8˜{S},11˜{R})-17-[5-[(3˜{R})-3-aminopiperidine-1-carbonyl]-7-methoxy-1-methyl-benzimidazol-2-yl]-8,11-dimethyl-8-(trifluoromethyl)-1,10,19-triazatricyclo[10.5.2.0^{15,18}]nonadeca-5,12(19),13,15(18),16-pentaen-9-one], for which the IC50 was 110 nM.
As for `COc1cc(C(=O)N2[C@H]3CC[C@@H]2[C@H](N)C3)cc2nc(-c3cc4ccc5nc4n3C[C@@H]3[C@H](COCCC(=O)N[C@@H]5C)C3(C)C)n(C)c12` (single isomer, unassigned) [Example 10, (3˜{R},5˜{S},12˜{R})-18-[5-[(1˜{R},2˜{R},4˜{S})-2-amino-7-azabicyclo[2.2.1]heptane-7-carbonyl]-7-methoxy-1-methyl-benzimidazol-2-yl]-4,4,12-trimethyl-7-oxa-1,11,20-triazatetracyclo[11.5.2.0^{3,5}.0^{16,19}]icosa-13(20),14,16(19),17-tetraen-10-one], the figure is 56 nM; as for `COc1cc(C(=O)N2[C@H]3CC[C@@H]2[C@H](N)C3)cc2nc(-c3cc4ccc5nc4n3C[C@H]3[C@@H](COCCC(=O)N[C@@H]5C)C3(C)C)n(C)c12` (single isomer, unassigned) [Example 11, (3˜{S},5˜{R},12˜{R})-18-[5-[(1˜{R},2˜{R},4˜{S})-2-amino-7-azabicyclo[2.2.1]heptane-7-carbonyl]-7-methoxy-1-methyl-benzimidazol-2-yl]-4,4,12-trimethyl-7-oxa-1,11,20-triazatetracyclo[11.5.2.0^{3,5}.0^{16,19}]icosa-13(20),14,16(19),7-tetraen-10-one], 251 nM.
For `COc1cc(C(=O)N2CCC[C@@H](N)C2)cc2nc(-c3cc4ccc5nc4n3C[C@H]3C[C@H]3CC[C@@H]3C[C@H]3C(=O)N[C@@H]5C)n(C)c12` (single isomer, unassigned) [Example 115, (3˜{S},5˜{R},8˜{R},10˜{R},13˜{R})-19-[5-[(3˜{R})-3-aminopiperidine-1-carbonyl]-7-methoxy-1-methyl-benzimidazol-2-yl]-13-methyl-1,12,21-triazapentacyclo[12.5.2.0^{3,5}.0^{8,10}.0^{17,20}]henicosa-14(21),15,17(20),18-tetraen-11-one], the IC50 came out at 40 nM.
Take `COc1cc(C(=O)N2CCC[C@@H](N)C2)cc2nc(-c3cc4ccc5nc4n3C[C@H]3C[C@H]3CC[C@H]3C[C@@H]3C(=O)N[C@@H]5C)n(C)c12` (single isomer, unassigned) [Example 116, (3˜{S},5˜{R},8˜{S},10˜{S},13˜{R})-19-[5-[(3˜{R})-3-aminopiperidine-1-carbonyl]-7-methoxy-1-methyl-benzimidazol-2-yl]-13-methyl-1,12,21-triazapentacyclo[12.5.2.0^{3,5}.0^{8,10}.0^{17,20}]henicosa-14(21),15,17(20),18-tetraen-11-one]: the IC50 came to 255 nM.
Take `COc1cc(C(=O)N2[C@H]3CC[C@@H]2[C@H](N)C3)cc2nc(-c3cc4ccc5nc4n3CCCCC[C@@H]3C[C@H]3C(=O)N[C@@H]5C)n(C)c12` (single isomer, unassigned) [Example 223, (2˜{R},5˜{R},7˜{R})-14-[5-[(1˜{R},2˜{R},4˜{S})-2-amino-7-azabicyclo[2.2.1]heptane-7-carbonyl]-7-methoxy-1-methyl-benzimidazol-2-yl]-2-methyl-3,13,19-triazatetracyclo[11.5.2.0^{5,7}.0^{16,20}]icosa-1(19),14,16(20),17-tetraen-4-one]: the IC50 turned out to be 28 nM.
On to `COc1cc(C(=O)N2[C@H]3CC[C@@H]2[C@H](N)C3)cc2nc(-c3cc4ccc5nc4n3CCCCC[C@H]3C[C@@H]3C(=O)N[C@@H]5C)n(C)c12` (single isomer, unassigned) [Example 224, (2˜{R},5˜{S},7˜{S})-14-[5-[(1˜{R},2˜{R},4˜{S})-2-amino-7-azabicyclo[2.2.1]heptane-7-carbonyl]-7-methoxy-1-methyl-benzimidazol-2-yl]-2-methyl-3,13,19-triazatetracyclo[11.5.2.0^{5,7}.0^{16,20}]icosa-1(19),14,16(20),17-tetraen-4-one], for which the IC50 is 57 nM.
As for `COc1cc(C(=O)N2CCC[C@@H](N)C2)cc2nc(-c3cc4ccc5nc4n3CCCCCCCC(=O)N[C@@H]5C(F)(F)F)n(C)c12` (single isomer, unassigned) [Example 235, (11˜{S})-17-[5-[(3˜{R})-3-aminopiperidine-1-carbonyl]-7-methoxy-1-methyl-benzimidazol-2-yl]-11-(trifluoromethyl)-1,10,19-triazatricyclo[10.5.2.0^{15,18}]nonadeca-12(19),13,15(18),16-tetraen-9-one], the half-maximal inhibitory concentration (IC50) is 113 nM.
For `COc1cc(C(=O)N2CCC[C@@H](N)C2)cc2nc(-c3cc4ccc5nc4n3CCCCCCCC(=O)N[C@H]5C(F)(F)F)n(C)c12` (single isomer, unassigned) [Example 236, (11˜{R})-17-[5-[(3˜{R})-3-aminopiperidine-1-carbonyl]-7-methoxy-1-methyl-benzimidazol-2-yl]-11-(trifluoromethyl)-1,10,19-triazatricyclo[10.5.2.0^{15,18}]nonadeca-12(19),13,15(18),16-tetraen-9-one], the IC50 stood at 858 nM.
Consider `COc1cc(C(=O)N2CC[C@H]3OCCN[C@H]3C2)cc2nc(-c3cc4ccc5nc4n3C[C@H]3C[C@H]3COCCC(=O)N[C@@H]5C)n(C)c12` (single isomer, unassigned) [Example 245, (3˜{S},5˜{R},12˜{R})-18-[5-[(4˜{a}˜{S},8˜{a}˜{R})-2,3,4,4˜{a},5,7,8,8˜{a}-octahydropyrido[4,3-b][1,4]oxazine-6-carbonyl]-7-methoxy-1-methyl-benzimidazol-2-yl]-12-methyl-7-oxa-1,11,20-triazatetracyclo[11.5.2.0^{3,5}.0^{16,19}]icosa-13(20),14,16(19),17-tetraen-10-one], for which the IC50 came to 411 nM.
Take `COc1cc(C(=O)N2CC[C@@H]3OCCN[C@@H]3C2)cc2nc(-c3cc4ccc5nc4n3C[C@H]3C[C@H]3COCCC(=O)N[C@@H]5C)n(C)c12` (single isomer, unassigned) [Example 246, (3˜{S},5˜{R},12˜{R})-18-[5-[(4˜{a}˜{R},8˜{a}˜{S})-2,3,4,4˜{a},5,7,8,8˜{a}-octahydropyrido[4,3-b][1,4]oxazine-6-carbonyl]-7-methoxy-1-methyl-benzimidazol-2-yl]-12-methyl-7-oxa-1,11,20-triazatetracyclo[11.5.2.0^{3,5}.0^{16,19}]icosa-13(20),14,16(19),17-tetraen-10-one]: the concentration for half-maximal inhibition (IC50) amounted to 3320 nM.
